The test system of series [1] is Neisseria gonorrhoeae. Nature of the series: Antimicrobial activity against penicillin-,ofloxacin- and tetracyclin-resistant Neisseria gonorrhoeae multiantigen sequence type 2469 isolate 11 harboring penA gene by Etest. The format is functional.
Series [2] can be described thus: Cmax in Neisseria gonorrhoeae infected patient at 400 mg, po. In kind it is ADME, organism-based. Particulars: human, in vivo. Also on record: dose 400 mg, route oral.
Series [3] deals with Neisseria gonorrhoeae. Nature of the series: Antimicrobial activity against penicillin-,ofloxacin- and tetracyclin-resistant Neisseria gonorrhoeae multiantigen sequence type 835 isolate 10 harboring penA gene by Etest. The format is functional.
The test system of series [4] is Neisseria gonorrhoeae. Nature of the series: Antimicrobial activity against penicillin-,ofloxacin- and tetracyclin-resistant Neisseria gonorrhoeae multiantigen sequence type 835 isolate 6 harboring penA gene by Etest. In kind it is functional.
In series [5] the test system is Neisseria gonorrhoeae. Nature of the series: Antimicrobial activity against penicillin-,ofloxacin- and tetracyclin-resistant Neisseria gonorrhoeae multiantigen sequence type 835 isolate 4 harboring penA gene by Etest. In kind it is functional.
Series [6] has as its system Neisseria gonorrhoeae. Nature of the series: Antimicrobial activity against penicillin-,ofloxacin- and tetracyclin-resistant Neisseria gonorrhoeae multiantigen sequence type 835 isolate 2 harboring penA gene by Etest. The format is functional.
The nature of series [7]: Half life in Neisseria gonorrhoeae infected patient at 400 mg, po. The format is ADME, organism-based. Particulars: human, in vivo.
Series [8] deals with Neisseria gonorrhoeae. Nature of the series: Antimicrobial activity against penicillin-,ofloxacin- and tetracyclin-resistant Neisseria gonorrhoeae multiantigen sequence type 835 isolate 5 harboring penA gene by Etest. The format is functional.
Series [9] has as its system Serum. Nature of the series: Protein binding in Neisseria gonorrhoeae infected patient serum at 400 mg, po. The format is ADME, organism-based. As to conditions: human, in vivo.
Series [10] concerns Neisseria gonorrhoeae. Nature of the series: Antimicrobial activity against penicillin-,ofloxacin- and tetracyclin-resistant Neisseria gonorrhoeae multiantigen sequence type 835 isolate 7 harboring penA gene by Etest. The format is functional.
Series [11] has as its system Neisseria gonorrhoeae. Nature of the series: Antimicrobial activity against penicillin-,ofloxacin- and tetracyclin-resistant Neisseria gonorrhoeae multiantigen sequence type 835 isolate 9 harboring penA gene by Etest. The format is functional.
The subject of series [12] is Neisseria gonorrhoeae. Nature of the series: Antimicrobial activity against penicillin-,ofloxacin- and tetracyclin-resistant Neisseria gonorrhoeae multiantigen sequence type 835 isolate 8 harboring penA gene by Etest. In kind it is functional.
Series [13] concerns Neisseria gonorrhoeae. Nature of the series: Antimicrobial activity against penicillin-,ofloxacin- and tetracyclin-resistant Neisseria gonorrhoeae multiantigen sequence type 835 isolate 1 harboring penA gene by Etest. In kind it is functional.
The nature of series [14]: Oral bioavailability in Neisseria gonorrhoeae infected patient at 400 mg, po. The format is ADME, organism-based. Particulars: human, in vivo.
For series [15], the system named is Neisseria gonorrhoeae. Nature of the series: Antimicrobial activity against penicillin-,ofloxacin- and tetracyclin-resistant Neisseria gonorrhoeae multiantigen sequence type 835 isolate 3 harboring penA gene by Etest. The format is functional.
In series [16] the test system is Neisseria gonorrhoeae. Nature of the series: Antimicrobial activity against penicillin-,ofloxacin- and tetracyclin-resistant Neisseria gonorrhoeae multiantigen sequence type 835 isolate 4 harboring penA gene by agar dilution method. In kind it is functional. In general terms: In agar dilution the substance is mixed into plates at graded concentrations.
The test system of series [17] is Neisseria gonorrhoeae. Nature of the series: Antimicrobial activity against penicillin-,ofloxacin- and tetracyclin-resistant Neisseria gonorrhoeae multiantigen sequence type 835 isolate 3 harboring penA gene by disk diffusion method. The format is functional. (In general: In agar diffusion tests the substance spreads into inoculated agar from a disc or well.)
Series [18] deals with Neisseria gonorrhoeae. Nature of the series: Antimicrobial activity against penicillin-,ofloxacin- and tetracyclin-resistant Neisseria gonorrhoeae multiantigen sequence type 835 isolate 2 harboring penA gene by disk diffusion method. In kind it is functional.
Series [19] concerns Neisseria gonorrhoeae. Nature of the series: Antimicrobial activity against penicillin-,ofloxacin- and tetracyclin-resistant Neisseria gonorrhoeae multiantigen sequence type 835 isolate 4 harboring penA gene by disk diffusion method. The format is functional.
In series [20] the test system is Neisseria gonorrhoeae. Nature of the series: Antimicrobial activity against penicillin-,ofloxacin- and tetracyclin-resistant Neisseria gonorrhoeae multiantigen sequence type 835 isolate 9 harboring penA gene by agar dilution method. The format is functional.
The subject of series [21] is Neisseria gonorrhoeae. Nature of the series: Antimicrobial activity against penicillin-,ofloxacin- and tetracyclin-resistant Neisseria gonorrhoeae multiantigen sequence type 835 isolate 7 harboring penA gene by agar dilution method. The format is functional.
The subject of series [22] is Neisseria gonorrhoeae. Nature of the series: Antimicrobial activity against penicillin-,ofloxacin- and tetracyclin-resistant Neisseria gonorrhoeae multiantigen sequence type 835 isolate 10 harboring penA gene by agar dilution method. In kind it is functional.
In series [23] the test system is Neisseria gonorrhoeae. Nature of the series: Antimicrobial activity against penicillin-,ofloxacin- and tetracyclin resistant penA-negative Neisseria gonorrhoeae by […]. In kind it is functional.
Series [24] relates to Neisseria gonorrhoeae. Nature of the series: Antimicrobial activity against penicillin-,ofloxacin- and tetracyclin resistant Neisseria gonorrhoeae by […]. In kind it is functional.
In series [25] the test system is Neisseria gonorrhoeae. Nature of the series: Antimicrobial activity against penicillin-,ofloxacin- and tetracyclin-resistant Neisseria gonorrhoeae multiantigen sequence type 835 isolate 1 harboring penA gene by disk diffusion method. The format is functional.
The test system of series [26] is Neisseria gonorrhoeae. Nature of the series: Antimicrobial activity against penicillin-,ofloxacin- and tetracyclin-resistant Neisseria gonorrhoeae multiantigen sequence type 835 isolate 5 harboring penA gene by disk diffusion method. In kind it is functional.
The subject of series [27] is Neisseria gonorrhoeae. Nature of the series: Antimicrobial activity against penicillin-,ofloxacin- and tetracyclin-resistant Neisseria gonorrhoeae multiantigen sequence type 835 isolate 5 harboring penA gene by agar dilution method. In kind it is functional.
Series [28] deals with Neisseria gonorrhoeae. Nature of the series: Antimicrobial activity against penicillin-,ofloxacin- and tetracyclin-resistant Neisseria gonorrhoeae multiantigen sequence type 835 isolate 2 harboring penA gene by agar dilution method. The format is functional.
Series [29] has as its system Neisseria gonorrhoeae. Nature of the series: Antimicrobial activity against penicillin-,ofloxacin- and tetracyclin-resistant Neisseria gonorrhoeae multiantigen sequence type 835 isolate 7 harboring penA gene by disk diffusion method. In kind it is functional.
In series [30] the test system is Neisseria gonorrhoeae. Nature of the series: Antimicrobial activity against penicillin-,ofloxacin- and tetracyclin-resistant Neisseria gonorrhoeae multiantigen sequence type 2469 isolate 11 harboring penA gene by agar dilution method. In kind it is functional.
Series [31] deals with Neisseria gonorrhoeae. Nature of the series: Antimicrobial activity against penicillin-,ofloxacin- and tetracyclin-resistant Neisseria gonorrhoeae multiantigen sequence type 835 isolate 6 harboring penA gene by disk diffusion method. In kind it is functional.
Series [32] has as its system Neisseria gonorrhoeae. Nature of the series: Antimicrobial activity against penicillin-,ofloxacin- and tetracyclin-resistant Neisseria gonorrhoeae multiantigen sequence type 835 isolate 9 harboring penA gene by disk diffusion method. The format is functional.
Series [33] concerns Neisseria gonorrhoeae. Nature of the series: Antimicrobial activity against penicillin-,ofloxacin- and tetracyclin-resistant Neisseria gonorrhoeae multiantigen sequence type 835 isolate 10 harboring penA gene by disk diffusion method. In kind it is functional.
In series [34] the test system is Neisseria gonorrhoeae. Nature of the series: Antimicrobial activity against penicillin-,ofloxacin- and tetracyclin-resistant Neisseria gonorrhoeae multiantigen sequence type 835 isolate 8 harboring penA gene by disk diffusion method. In kind it is functional.
Series [35] relates to Neisseria gonorrhoeae. Nature of the series: Antimicrobial activity against penicillin-,ofloxacin- and tetracyclin-resistant Neisseria gonorrhoeae multiantigen sequence type 835 isolate 8 harboring penA gene by agar dilution method. The format is functional.
Series [36] deals with Neisseria gonorrhoeae. Nature of the series: Antimicrobial activity against penicillin-,ofloxacin- and tetracyclin-resistant Neisseria gonorrhoeae multiantigen sequence type 835 isolate 3 harboring penA gene by agar dilution method. In kind it is functional.
In series [37] the test system is Neisseria gonorrhoeae. Nature of the series: Antimicrobial activity against penicillin-,ofloxacin- and tetracyclin-resistant Neisseria gonorrhoeae multiantigen sequence type 2469 isolate 11 harboring penA gene by disk diffusion method. In kind it is functional.
Series [38] relates to Neisseria gonorrhoeae. Nature of the series: Antimicrobial activity against penicillin-,ofloxacin- and tetracyclin-resistant Neisseria gonorrhoeae multiantigen sequence type 835 isolate 1 harboring penA gene by agar dilution method. The format is functional.
Series [39] relates to Neisseria gonorrhoeae. Nature of the series: Antimicrobial activity against penicillin-,ofloxacin- and tetracyclin-resistant Neisseria gonorrhoeae multiantigen sequence type 835 isolate 6 harboring penA gene by agar dilution method. The format is functional.

Converted amounts (≈) assume the structure as drawn. Where only a bound is given, the exact number is not on record here.

The term MIC denotes the least concentration at which growth counts as inhibited. High values mean weaker potency, low ones greater potency. The Cmax is the highest concentration seen after dosing. Usually half-life stands for the time needed for the level to fall by half in the phase considered. Read a low half-life as fast loss. Usually bioavailability stands for the share of a dose that reaches the circulation, judged against a reference dose that is usually intravenous. For `C=CC1=C(C(=O)O)N2C(=O)[C@@H](NC(=O)/C(=N\OCC(=O)O)c3csc(N)n3)[C@H]2SC1` [CEFIXIME], the MIC came to 0.125 µg/mL (≈ 0.276 µM) in series [1]; 0.25 µg/mL (≈ 0.551 µM) in [3]; 0.25 µg/mL (≈ 0.551 µM) in series [4]; 0.25 µg/mL (≈ 0.551 µM) in [5]; 0.25 µg/mL (≈ 0.551 µM) in series [6]; 0.25 µg/mL (≈ 0.551 µM) in series [8]. The MIC in series [10] is 0.25 µg/mL (≈ 0.551 µM); in series [11] it was 0.125 µg/mL (≈ 0.276 µM); in series [12], 0.25 µg/mL (≈ 0.551 µM); in series [13], 0.25 µg/mL (≈ 0.551 µM); in series [15], 0.25 µg/mL (≈ 0.551 µM). The compound further had a Cmax in series [2] of 3000 ng/mL. The compound also showed a half-life in series [7] of 3.1 h. The compound also had an Activity in [9] of 65%. This compound also came in with a bioavailability in series [14] of 50%.
Consider `Nc1nc(/C(=C/CC(=O)O)C(=O)N[C@@H]2C(=O)N3C(C(=O)O)=CCS[C@H]23)cs1` [CEFTIBUTEN], for which the MIC in series [16] was 8 µg/mL (≈ 19.5 µM); in series [20], 8 µg/mL (≈ 19.5 µM); in [21], 8 µg/mL (≈ 19.5 µM); in [22], 8 µg/mL (≈ 19.5 µM); in series [23] it was at most 1 µg/mL; in series [27], 8 µg/mL (≈ 19.5 µM). For the same compound, the MIC in series [28], in series [30], in series [35], in [36], in [38] and in [39] was 8 µg/mL (≈ 19.5 µM) throughout. The “diameter of the inhibition zone (DIZ)” value in [17] is 25 mm; in series [18], 24 mm; in [19], 22 mm; in series [24], “>=30 mm”; in series [25] it was 26 mm; in series [26], 20 mm. Further, the “diameter of the inhibition zone (DIZ)” value in [29] is listed as 25 mm; in [31], 22 mm; in [32], 27 mm; in [33], 19 mm; in [34] it was 21 mm; in [37], 23 mm. Moreover, the Cmax in [2] was 15000 ng/mL. In [7], the half-life was 2.4 h. The compound also displayed an Activity in series [9] of 65%. In series [14], this compound came in with a bioavailability of 80%.
For the compound `CO/N=C(\C(=O)N[C@@H]1C(=O)N2C(C(=O)O)=C(CSc3nc(=O)c(O)nn3C)CS[C@H]12)c1csc(N)n1` [CEFTRIAXONE], the MIC in series [1], in [3], in series [4], in series [5], in series [6] and in [8] was 0.064 µg/mL (≈ 0.115 µM) throughout. Besides, the MIC was 0.064 µg/mL (≈ 0.115 µM) in series [10]; 0.064 µg/mL (≈ 0.115 µM) in [11]; 0.125 µg/mL (≈ 0.225 µM) in series [12]; 0.064 µg/mL (≈ 0.115 µM) in series [13]; 0.064 µg/mL (≈ 0.115 µM) in [15].
Take `CN[C@@H]1[C@H](O)[C@H](NC)[C@H]2O[C@@]3(O)C(=O)C[C@@H](C)O[C@H]3O[C@@H]2[C@H]1O` [SPECTINOMYCIN]: the MIC in series [1] was 8 µg/mL (≈ 24.1 µM); in series [3], 8 µg/mL (≈ 24.1 µM); in [4], 8 µg/mL (≈ 24.1 µM); in series [5], 8 µg/mL (≈ 24.1 µM); in series [6], 16 µg/mL (≈ 48.1 µM); in series [8], 8 µg/mL (≈ 24.1 µM). The minimum inhibitory concentration (MIC) in [10] was found to be 8 µg/mL (≈ 24.1 µM); in series [11] it was 8 µg/mL (≈ 24.1 µM); in series [12], 8 µg/mL (≈ 24.1 µM); in series [13] it was 8 µg/mL (≈ 24.1 µM); in [15], 16 µg/mL (≈ 48.1 µM).
